Measured values from article PMC10254170, “Diastereoselective Synthesis of the Borylated D-Galactose Monosaccharide 3-Boronic-3-Deoxy-D-Galactose and Biological Evaluation in Glycosidase Inhibition and in Cancer for Boron Neutron Capture Therapy (BNCT)” (Molecules, 2023).
Like-named read-outs stand apart in the source and are kept apart here.

Experiments:
[1] = molecular target: T1, bovine kidney α-L-fucosidase (Bos taurus, UniProt Q2KIM0); assay: Glycosidase inhibition, bovine kidney α-L-fucosidase; format: biochemical
T1 construct: purchased Sigma-Aldrich Co; host or cells: bovine kidney
T1 sequence (Q2KIM0 23-468): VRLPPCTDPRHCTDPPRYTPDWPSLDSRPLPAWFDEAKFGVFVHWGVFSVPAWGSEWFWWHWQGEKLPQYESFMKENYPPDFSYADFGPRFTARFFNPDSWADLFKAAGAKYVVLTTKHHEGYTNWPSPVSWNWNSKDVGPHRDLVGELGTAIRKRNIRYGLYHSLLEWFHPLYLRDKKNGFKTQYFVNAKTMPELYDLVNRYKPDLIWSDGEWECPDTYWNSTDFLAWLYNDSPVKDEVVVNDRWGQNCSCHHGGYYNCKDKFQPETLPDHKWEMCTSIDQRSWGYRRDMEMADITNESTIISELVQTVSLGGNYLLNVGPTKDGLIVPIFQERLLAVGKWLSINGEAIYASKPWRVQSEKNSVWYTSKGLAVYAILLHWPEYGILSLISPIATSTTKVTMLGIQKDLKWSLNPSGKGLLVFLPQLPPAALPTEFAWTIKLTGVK
From the text: Glycosidase modulation studies need to explore selectivity as well as potency. Our drugs and controls are therefore screened against a panel of glycosidases in methanol (Table 1) to identify the glycosidase-related disease area(s), selectivity profile, and potency of biological action for each drug. The presence of organic boron covalently bonded to the drug structure also grants a reduced toxicity profile. Following the glycosidase inhibition range recommendations, an IC50 value >250 μm denotes weak inhibition, 100–249 μm denotes moderate inhibition, 10–99 μm good inhibition, 0.1–9 μm potent inhibition, and <0.1 μm very potent inhibition. […] Our boronated D-galactose 7 represents a novel lead in glycosidase inhibition.
The glycosidases screened are the following: rice α-glucosidase, yeast α-glucosidase, Bacillus α-glucosidase, rat intestinal maltase α-glucosidase, almond β-glucosidase, bovine liver β-glucosidase, coffee beans α-galactosidase, bovine liver β-galactosidase, Jack bean α-mannosidase, snail β-mannosidase, Penicillium decumbens α-L-rhamnosidase, bovine kidney α-L-fucosidase, Eschierichia coli β-glucuronidase, bovine liver β-glucuronidase, porcine kidney trehalase, Aspergillus niger amyloglucosidase, and bovine kidney N-acetyl-β-glucosaminidase. The disease areas for each glycosidase are summarized in [1].
The enzymes α-glucosidase (from yeast), β-glucosidases (from almond and bovine liver), α-galactosidase (from coffee beans), β-galactosidase (from bovine liver), α-mannosidase (from Jack bean), β-mannosidase (from snail), α-L-rhamnosidase (from Penicillium decumbens), α-L-fucosidase (from bovine kidney), trehalase (from porcine kidney), β-glucuronidases (from E. coli and bovine liver), amyloglucosidase (from A. niger), para-nitrophenyl glycosides, and various disaccharides were purchased from Sigma-Aldrich Co.
Brush border membranes were prepared from the rat small intestine according to the method of Kessler et al. and were assayed at pH 6.8 for rat intestinal maltase using maltose. For rat intestinal maltase, porcine kidney trehalase, and A. niger amyloglucosidase activities, the reaction mixture contained 25 mM maltose and the appropriate amount of enzyme, and the incubations were performed for 10–30 min at 37 °C. The reaction was stopped by heating at 100 °C for 3 min. After centrifugation (600 g; 10 min), the resulting reaction mixture was added to the Glucose CII-test Wako (Wako Pure Chemical Ind., Osaka, Japan). The absorbance at 505 nm was measured to determine the amount of the released D-glucose. Other glycosidase activities were determined using an appropriate para-nitrophenyl glycoside as substrate at the optimum pH of each enzyme. The reaction mixture contained 2 mM of the substrate and the appropriate amount of enzyme. The reaction was stopped by the addition of 400 mM Na2CO3. The released para-nitrophenol was measured spectrometrically at 400 nm. All reactions run in methanol.

[2] = test system: MiaPaCa-2 (pancreatic carcinoma); assay: Cancer screening (MTT growth inhibition), MIA-Pa-Ca2; format: cell-based; conditions: 72 h; for Percentage (%) cell growth inhibition: 25 µM of drug; for Percentage (%) cell growth inhibition / inhibition at 25 µM: n = 3, mean ± SEM; for inhibition at 25 µM: MIA PaCa-2, 25 µM of drug, read-out: Percentage (%) cell growth inhibition
Method: (§1) All test agents were prepared as stock solutions (20 mM) in dimethyl sulfoxide (DMSO) and stored at −20 °C. Cell lines used in the study included: HT29 (colorectal carcinoma), U87 and SJ-G2 (glioblastoma), MCF-7 (breast carcinoma), A2780 (ovarian carcinoma), H460 (lung carcinoma), A431 (skin carcinoma), Du145 (prostate carcinoma), BE2-C (neuroblastoma), MiaPaCa-2 (pancreatic carcinoma), SMA560 (spontaneous murine astrocytoma), and ADDP (Cis Res Ovarian), together with one non-tumor-derived normal breast cell line (MCF10A). All cell lines were incubated in a humidified atmosphere with 5 % CO2 at 37 °C. The cancer cell lines were maintained in Dulbecco’s modified Eagle’s medium (DMEM; Sigma, Australia) supplemented with fetal bovine serum (10%), sodium pyruvate (10 mM), penicillin (100 IUmL^−1), streptomycin (100 µg mL^−1), and L-glutamine (2 mM).
(§2) Growth inhibition was determined by plating cells in duplicate in medium (100 µL) at a density of 2500–4000 cells per well in 96-well plates. On day 0 (24 h after plating), when the cells are in logarithmic growth, medium (100 µL) with or without the test agent was added to each well. After 72 h of drug exposure, growth inhibitory effects were evaluated using the (3-(4,5-dimethyltiazol-2-yl)-2,5-diphenyltetrazolium bromide) (MTT) assay and absorbance read at 540 nm. The percentage growth inhibition was calculated at a fixed concentration of 25 µM, based on the difference between the optical density values on day 0 and those at the end of drug exposure. Each data point is the mean ± the standard error of the mean (SEM) calculated from three replicates, which were performed on separate occasions and in separate cell line passages.

[3] = test system: A431 (skin carcinoma); assay: Cancer screening (MTT growth inhibition), A431; format: cell-based; conditions: 72 h; for Percentage (%) cell growth inhibition: 25 µM of drug; for Percentage (%) cell growth inhibition / inhibition at 25 µM: n = 3, mean ± SEM; for inhibition at 25 µM: A-431, 25 µM of drug, read-out: Percentage (%) cell growth inhibition
Method: as §1, §2

[4] = test system: U87 (glioblastoma); assay: Cancer screening (MTT growth inhibition), U87; format: cell-based; conditions: 72 h; for Percentage (%) cell growth inhibition / inhibition at 25 µM: 25 µM of drug, n = 3, mean ± SEM; for inhibition at 25 µM: read-out: Percentage (%) cell growth inhibition
Method: as §1, §2

[5] = test system: H460 (lung carcinoma); assay: Cancer screening (MTT growth inhibition), H460; format: cell-based; conditions: 72 h; for Percentage (%) cell growth inhibition: 25 µM of drug; for Percentage (%) cell growth inhibition / inhibition at 25 µM: n = 3, mean ± SEM; for inhibition at 25 µM: NCI-H460, 25 µM of drug, read-out: Percentage (%) cell growth inhibition
Method: as §1, §2

[6] = at 100 μM, in methanol, read-out: inhibition %
[7] = at 100 μM, read-out: NI: No inhibition

Molecule	Percentage (%) cell growth inhibition [2] [%]	Percentage (%) cell growth inhibition [3] [%]	Percentage (%) cell growth inhibition [4] [%]	Percentage (%) cell growth inhibition [5] [%]	inhibition at 100 µM [1, 6] [%]	inhibition at 100 µM [1, 7] [%]	inhibition at 25 µM ([2]; Homo sapiens) [%]	inhibition at 25 µM ([3]; Homo sapiens) [%]	inhibition at 25 µM [4] [%]	inhibition at 25 µM ([5]; Homo sapiens) [%]	further results
N[C@@H](Cc1ccc(B(O)O)cc1)C(=O)O [^10B-BPA]	11 ± 3	4 ± 4	<0	8 ± 5							NI: No inhibition ([1]; at 100 μM): NI (No inhibition (less than 50% inhibition at 100 μM)); inhibition % ([1]; at 100 μM, in methanol): 0%
CC1(C)OCC(C2OC3OC(C)(C)OC3C2[B-]23OCC[NH+]2CCO3)O1 [Compound 6, 3-Deoxy-3-Boronodiethanolamine-1,2:5,6-Di-O-isopropylidene-α-D-galactofuranose]					6.5	< 50	3 ± 1	0	8 ± 4	9 ± 2	
OCC1OC(O)C(O)C(B(O)O)C1O [Compound 7, 3-Boronic-3-Deoxy-D-galactose]							1 ± 2	3	-6 ± 3	4 ± 1	inhibition at 1000 µM ([1]; at 1000 μM, in methanol, read-out: inhibition %): 1.3%; inhibition at 1000 µM ([1]; at 1000 μM, read-out: NI: No inhibition): < 50%; GI50 ([2]; Homo sapiens, MIA PaCa-2, dose response, read-out: GI50 = Concentration that inhibits cell growth by 50%): > 50 µM; GI50 ([3]; Homo sapiens, A-431, dose response, read-out: GI50 = Concentration that inhibits cell growth by 50%): > 50 µM; GI50 ([4]; dose response, read-out: GI50 = Concentration that inhibits cell growth by 50%): > 50 µM; GI50 ([5]; Homo sapiens, NCI-H460, dose response, read-out: GI50 = Concentration that inhibits cell growth by 50%): > 50 µM
N[C@@H](Cc1ccc(B(O)O)cc1)C(=O)O [BPA, 4-borono-L-phenylalanine]					0	< 50	3 ± 3	4 ± 6	< 0	7 ± 8	
Borocaptate sodium [BSH]	2 ± 6	<0	<0	8 ± 2							NI: No inhibition ([1]; at 1000 μM): NI (No inhibition (less than 50% inhibition at 1000 μM)); inhibition % ([1]; at 1000 μM, in methanol): 0%
